Results from ChEMBL document CHEMBL5465560, “Selectivity Literature for EUbOPEN Chemogenomic Library” (2024).

Assays:
[1] = biological target: T1, Bone morphogenetic protein receptor type-2 (Homo sapiens) (UniProt Q13873); assay: Selectivity interaction (LanthaScreen Eu Kinase Binding Assay) EUB0001632a BMPR2; conditions: at 10 µM
T1 sequence (whole entry): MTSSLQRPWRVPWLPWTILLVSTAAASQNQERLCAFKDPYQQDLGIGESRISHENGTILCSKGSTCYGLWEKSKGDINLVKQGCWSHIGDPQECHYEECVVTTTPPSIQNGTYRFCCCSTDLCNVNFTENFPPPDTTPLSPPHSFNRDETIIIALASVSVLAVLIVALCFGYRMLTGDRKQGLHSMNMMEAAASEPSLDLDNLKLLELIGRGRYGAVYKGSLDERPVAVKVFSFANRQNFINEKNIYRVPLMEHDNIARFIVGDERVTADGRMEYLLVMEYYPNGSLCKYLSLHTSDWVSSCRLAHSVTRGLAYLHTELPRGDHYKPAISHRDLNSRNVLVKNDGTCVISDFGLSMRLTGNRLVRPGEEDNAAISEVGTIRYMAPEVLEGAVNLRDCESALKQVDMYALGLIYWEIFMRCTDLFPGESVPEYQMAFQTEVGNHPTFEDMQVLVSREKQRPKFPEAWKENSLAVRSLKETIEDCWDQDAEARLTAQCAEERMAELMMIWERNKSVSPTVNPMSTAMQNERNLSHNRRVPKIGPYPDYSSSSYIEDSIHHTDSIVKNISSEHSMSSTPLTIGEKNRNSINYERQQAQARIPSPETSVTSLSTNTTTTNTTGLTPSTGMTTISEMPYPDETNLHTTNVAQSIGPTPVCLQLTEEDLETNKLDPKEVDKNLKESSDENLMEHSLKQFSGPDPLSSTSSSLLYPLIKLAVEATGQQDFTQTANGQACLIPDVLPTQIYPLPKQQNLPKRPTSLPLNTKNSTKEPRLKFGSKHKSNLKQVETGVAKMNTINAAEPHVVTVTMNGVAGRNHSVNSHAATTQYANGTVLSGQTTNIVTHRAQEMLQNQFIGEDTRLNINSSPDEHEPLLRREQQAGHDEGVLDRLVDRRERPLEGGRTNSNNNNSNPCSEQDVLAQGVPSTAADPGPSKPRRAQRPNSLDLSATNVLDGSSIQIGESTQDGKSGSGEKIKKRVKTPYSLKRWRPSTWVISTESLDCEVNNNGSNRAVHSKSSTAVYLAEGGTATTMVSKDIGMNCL

[2] = biological target: Mitogen-activated protein kinase 14 (Homo sapiens, UniProt Q16539); assay: Selectivity interaction (Kinase panel (Z-LYTE Assay)) EUB0001632a MAPK14; conditions: at 10 µM
Chain of Mitogen-activated protein kinase 14 (Q16539 whole entry): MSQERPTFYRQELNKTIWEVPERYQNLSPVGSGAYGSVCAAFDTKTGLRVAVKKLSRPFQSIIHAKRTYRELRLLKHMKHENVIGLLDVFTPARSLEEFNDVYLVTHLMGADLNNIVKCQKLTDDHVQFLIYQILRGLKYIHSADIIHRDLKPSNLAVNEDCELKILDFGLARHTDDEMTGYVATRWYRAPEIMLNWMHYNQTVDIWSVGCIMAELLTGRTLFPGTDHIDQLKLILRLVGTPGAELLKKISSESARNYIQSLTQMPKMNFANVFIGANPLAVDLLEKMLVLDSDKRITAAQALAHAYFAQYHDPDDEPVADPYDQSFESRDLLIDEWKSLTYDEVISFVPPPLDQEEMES

[3] = biological target: RAC-beta serine/threonine-protein kinase (Homo sapiens) (UniProt P31751); assay: Selectivity interaction (KinomeScan (DiscoverX)) EUB0000666a AKT2; conditions: at 10 µM
Chain of RAC-beta serine/threonine-protein kinase (Homo sapiens) (P31751 whole entry): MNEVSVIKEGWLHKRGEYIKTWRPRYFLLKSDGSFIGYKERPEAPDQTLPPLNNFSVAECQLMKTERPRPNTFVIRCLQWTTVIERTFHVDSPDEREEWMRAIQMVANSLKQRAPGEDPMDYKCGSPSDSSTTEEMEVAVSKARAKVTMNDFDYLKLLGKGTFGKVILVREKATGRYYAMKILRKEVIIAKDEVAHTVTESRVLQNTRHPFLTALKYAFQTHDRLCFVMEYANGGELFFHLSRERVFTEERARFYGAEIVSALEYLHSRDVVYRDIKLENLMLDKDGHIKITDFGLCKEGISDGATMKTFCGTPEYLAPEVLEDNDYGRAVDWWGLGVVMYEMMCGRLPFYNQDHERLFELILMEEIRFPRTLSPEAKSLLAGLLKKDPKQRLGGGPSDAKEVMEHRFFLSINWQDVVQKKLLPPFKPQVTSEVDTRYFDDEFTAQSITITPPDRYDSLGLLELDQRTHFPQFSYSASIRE

[4] = biological target: T2, Tyrosine-protein kinase Tec (Homo sapiens) (UniProt P42680); assay: Selectivity interaction (KinomeScan (DiscoverX)) EUB0000666a TEC; conditions: at 10 µM
T2 sequence (whole entry): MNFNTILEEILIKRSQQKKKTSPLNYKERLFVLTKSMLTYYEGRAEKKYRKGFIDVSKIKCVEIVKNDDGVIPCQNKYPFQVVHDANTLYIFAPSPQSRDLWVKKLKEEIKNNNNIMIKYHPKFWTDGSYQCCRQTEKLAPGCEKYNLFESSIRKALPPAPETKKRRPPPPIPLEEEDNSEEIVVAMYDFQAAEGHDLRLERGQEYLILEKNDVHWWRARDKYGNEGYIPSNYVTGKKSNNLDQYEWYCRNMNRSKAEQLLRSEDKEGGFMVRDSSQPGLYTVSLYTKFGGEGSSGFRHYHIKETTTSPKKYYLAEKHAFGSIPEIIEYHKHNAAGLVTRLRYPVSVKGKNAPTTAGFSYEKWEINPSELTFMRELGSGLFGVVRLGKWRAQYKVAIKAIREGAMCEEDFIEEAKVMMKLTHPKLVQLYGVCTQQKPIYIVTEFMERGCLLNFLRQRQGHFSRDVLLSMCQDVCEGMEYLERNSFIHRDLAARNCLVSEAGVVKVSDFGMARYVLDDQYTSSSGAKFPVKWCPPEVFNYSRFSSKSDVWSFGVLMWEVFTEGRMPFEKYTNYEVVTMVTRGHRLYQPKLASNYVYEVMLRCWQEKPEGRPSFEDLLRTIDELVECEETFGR

[5] = biological target: Homeodomain-interacting protein kinase 2 (Homo sapiens, UniProt Q9H2X6); assay: Selectivity interaction (ProQinase) EUB0000171b HIPK2
Chain of Homeodomain-interacting protein kinase 2 (Q9H2X6 whole entry, looked up): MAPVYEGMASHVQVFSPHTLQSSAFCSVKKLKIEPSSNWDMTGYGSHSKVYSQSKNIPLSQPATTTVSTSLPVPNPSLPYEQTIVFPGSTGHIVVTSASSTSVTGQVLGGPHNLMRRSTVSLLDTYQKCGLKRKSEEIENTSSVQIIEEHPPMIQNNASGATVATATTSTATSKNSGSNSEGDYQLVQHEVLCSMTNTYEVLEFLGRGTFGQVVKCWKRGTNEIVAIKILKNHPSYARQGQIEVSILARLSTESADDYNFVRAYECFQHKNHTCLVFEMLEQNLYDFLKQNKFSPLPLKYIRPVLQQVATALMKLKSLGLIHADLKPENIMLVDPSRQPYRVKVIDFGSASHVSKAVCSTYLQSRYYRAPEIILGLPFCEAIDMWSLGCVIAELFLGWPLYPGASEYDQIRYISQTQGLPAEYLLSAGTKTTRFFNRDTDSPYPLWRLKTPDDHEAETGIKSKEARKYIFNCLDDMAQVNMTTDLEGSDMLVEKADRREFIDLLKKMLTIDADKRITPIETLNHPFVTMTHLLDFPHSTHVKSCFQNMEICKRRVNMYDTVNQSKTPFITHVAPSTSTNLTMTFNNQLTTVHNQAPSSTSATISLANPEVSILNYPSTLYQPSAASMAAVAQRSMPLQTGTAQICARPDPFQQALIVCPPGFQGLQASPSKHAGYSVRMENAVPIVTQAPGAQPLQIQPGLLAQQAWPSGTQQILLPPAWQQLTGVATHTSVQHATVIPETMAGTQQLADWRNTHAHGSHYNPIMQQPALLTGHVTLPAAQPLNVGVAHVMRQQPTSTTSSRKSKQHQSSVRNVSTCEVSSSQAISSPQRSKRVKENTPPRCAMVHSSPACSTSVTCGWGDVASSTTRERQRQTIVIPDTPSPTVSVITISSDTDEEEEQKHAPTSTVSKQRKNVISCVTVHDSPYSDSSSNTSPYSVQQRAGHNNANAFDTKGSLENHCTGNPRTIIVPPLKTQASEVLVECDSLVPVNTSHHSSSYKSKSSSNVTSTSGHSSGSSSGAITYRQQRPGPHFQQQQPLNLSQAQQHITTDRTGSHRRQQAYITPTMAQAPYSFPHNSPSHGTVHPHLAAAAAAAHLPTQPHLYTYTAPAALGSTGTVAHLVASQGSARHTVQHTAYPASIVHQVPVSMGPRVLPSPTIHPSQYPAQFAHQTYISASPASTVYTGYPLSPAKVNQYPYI

[6] = biological target: Interleukin-1 receptor-associated kinase 1 (Homo sapiens) (UniProt P51617); assay: Selectivity interaction (ProQinase) EUB0000171b IRAK1
Chain of Interleukin-1 receptor-associated kinase 1 (Homo sapiens) (P51617 whole entry, looked up): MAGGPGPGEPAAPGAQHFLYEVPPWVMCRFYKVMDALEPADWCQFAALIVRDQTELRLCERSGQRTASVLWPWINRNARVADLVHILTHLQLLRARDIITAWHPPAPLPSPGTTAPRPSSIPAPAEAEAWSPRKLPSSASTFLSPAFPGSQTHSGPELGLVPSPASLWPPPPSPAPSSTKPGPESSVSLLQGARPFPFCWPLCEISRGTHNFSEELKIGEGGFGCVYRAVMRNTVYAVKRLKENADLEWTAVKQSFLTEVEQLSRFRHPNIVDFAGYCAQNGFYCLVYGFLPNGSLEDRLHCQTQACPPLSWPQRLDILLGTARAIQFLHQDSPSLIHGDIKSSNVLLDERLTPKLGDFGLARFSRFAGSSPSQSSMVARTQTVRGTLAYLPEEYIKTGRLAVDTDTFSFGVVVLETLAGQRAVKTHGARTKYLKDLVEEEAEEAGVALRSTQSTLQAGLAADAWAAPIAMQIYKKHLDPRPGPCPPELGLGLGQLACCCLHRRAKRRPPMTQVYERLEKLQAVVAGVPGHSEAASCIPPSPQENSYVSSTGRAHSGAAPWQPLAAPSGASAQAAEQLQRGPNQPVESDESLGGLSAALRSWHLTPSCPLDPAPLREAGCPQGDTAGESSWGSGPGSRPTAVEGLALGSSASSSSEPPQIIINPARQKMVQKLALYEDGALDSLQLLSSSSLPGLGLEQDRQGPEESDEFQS

[7] = biological target: Cyclin-dependent kinase 9 (Homo sapiens, UniProt P50750); conditions: at 10 µM
Chain of Cyclin-dependent kinase 9 (P50750 whole entry): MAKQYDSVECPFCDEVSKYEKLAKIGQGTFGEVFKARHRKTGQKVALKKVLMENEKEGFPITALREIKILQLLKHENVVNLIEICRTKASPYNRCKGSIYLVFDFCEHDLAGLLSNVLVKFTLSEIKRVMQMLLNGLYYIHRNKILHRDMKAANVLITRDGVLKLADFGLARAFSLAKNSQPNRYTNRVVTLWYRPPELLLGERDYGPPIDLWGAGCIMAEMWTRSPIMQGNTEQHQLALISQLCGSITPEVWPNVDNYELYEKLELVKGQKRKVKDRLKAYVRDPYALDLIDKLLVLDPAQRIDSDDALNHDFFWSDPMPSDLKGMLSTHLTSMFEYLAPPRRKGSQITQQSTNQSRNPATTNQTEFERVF

[8] = biological target: Platelet-derived growth factor receptor alpha (Homo sapiens, UniProt P16234); assay: Selectivity interaction (Millipore kinase profiler) EUB0000124b PDGFRA; conditions: at 10 µM
[9] = biological target: Dual specificity mitogen-activated protein kinase kinase 2 (Homo sapiens) (UniProt P36507); assay: Selectivity interaction (KinomeScan (DiscoverX)) EUB0000655a MAP2K2; conditions: at 10 µM
[10] = biological target: Serine/threonine-protein kinase MARK2 (Homo sapiens) (UniProt Q7KZI7); assay: Selectivity interaction (Kinase panel (KiNativ target engagement assay in Jurkat cells)) EUB0001635a MARK2; format: cell-based; conditions: Selectivity number of off-targets 0.0, Selectivity number of targets 233.0, Source Knowledge https://www.sciencedirect.com/science/article/pii/S2451945619300674?via%3Dihub, at 1 µM
Chain of Serine/threonine-protein kinase MARK2 (Homo sapiens) (Q7KZI7 whole entry): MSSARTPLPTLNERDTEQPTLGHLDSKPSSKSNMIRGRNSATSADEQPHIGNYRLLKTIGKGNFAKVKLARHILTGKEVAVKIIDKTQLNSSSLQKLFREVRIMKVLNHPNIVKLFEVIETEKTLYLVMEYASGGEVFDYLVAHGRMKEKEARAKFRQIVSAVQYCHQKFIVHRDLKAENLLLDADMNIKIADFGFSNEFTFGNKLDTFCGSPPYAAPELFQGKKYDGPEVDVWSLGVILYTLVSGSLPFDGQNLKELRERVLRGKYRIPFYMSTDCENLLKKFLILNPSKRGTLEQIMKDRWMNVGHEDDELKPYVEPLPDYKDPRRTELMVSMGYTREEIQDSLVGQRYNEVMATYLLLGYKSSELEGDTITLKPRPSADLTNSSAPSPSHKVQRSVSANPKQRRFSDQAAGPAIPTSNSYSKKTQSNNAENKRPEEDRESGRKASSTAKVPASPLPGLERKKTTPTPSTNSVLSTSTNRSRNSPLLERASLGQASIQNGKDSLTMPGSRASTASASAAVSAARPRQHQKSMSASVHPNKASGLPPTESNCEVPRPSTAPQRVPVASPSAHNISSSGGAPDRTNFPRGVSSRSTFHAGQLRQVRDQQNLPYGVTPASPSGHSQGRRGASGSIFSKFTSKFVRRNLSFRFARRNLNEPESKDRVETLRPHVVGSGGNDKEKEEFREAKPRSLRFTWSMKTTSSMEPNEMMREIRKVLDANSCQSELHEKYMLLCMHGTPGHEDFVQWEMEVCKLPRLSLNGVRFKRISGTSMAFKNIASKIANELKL

[11] = biological target: T3, Serine/threonine-protein kinase ULK3 (Homo sapiens) (UniProt Q6PHR2); assay: Selectivity interaction (Kinase panel (KiNativ target engagement assay in Jurkat cells)) EUB0001635a ULK3; format: cell-based; conditions: at 1 µM
T3 sequence (whole entry): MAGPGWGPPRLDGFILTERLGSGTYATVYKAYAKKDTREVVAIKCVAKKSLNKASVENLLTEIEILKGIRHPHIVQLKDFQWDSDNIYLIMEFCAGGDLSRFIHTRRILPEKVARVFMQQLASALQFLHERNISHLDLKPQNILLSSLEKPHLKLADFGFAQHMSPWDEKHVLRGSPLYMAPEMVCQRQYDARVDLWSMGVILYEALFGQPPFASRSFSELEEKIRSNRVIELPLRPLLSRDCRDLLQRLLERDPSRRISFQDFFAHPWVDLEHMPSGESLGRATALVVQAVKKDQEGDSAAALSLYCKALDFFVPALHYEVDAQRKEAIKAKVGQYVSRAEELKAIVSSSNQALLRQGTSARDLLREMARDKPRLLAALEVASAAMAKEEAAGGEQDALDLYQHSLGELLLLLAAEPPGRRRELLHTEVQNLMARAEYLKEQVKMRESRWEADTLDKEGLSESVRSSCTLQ

[12] = biological target: Fibroblast growth factor receptor 2 (Homo sapiens) (UniProt P21802); assay: Selectivity interaction (KinomeScan (DiscoverX)) EUB0000229b FGFR2; conditions: at 10 µM
Chain of Fibroblast growth factor receptor 2 (Homo sapiens) (P21802 22-821 limits assumed): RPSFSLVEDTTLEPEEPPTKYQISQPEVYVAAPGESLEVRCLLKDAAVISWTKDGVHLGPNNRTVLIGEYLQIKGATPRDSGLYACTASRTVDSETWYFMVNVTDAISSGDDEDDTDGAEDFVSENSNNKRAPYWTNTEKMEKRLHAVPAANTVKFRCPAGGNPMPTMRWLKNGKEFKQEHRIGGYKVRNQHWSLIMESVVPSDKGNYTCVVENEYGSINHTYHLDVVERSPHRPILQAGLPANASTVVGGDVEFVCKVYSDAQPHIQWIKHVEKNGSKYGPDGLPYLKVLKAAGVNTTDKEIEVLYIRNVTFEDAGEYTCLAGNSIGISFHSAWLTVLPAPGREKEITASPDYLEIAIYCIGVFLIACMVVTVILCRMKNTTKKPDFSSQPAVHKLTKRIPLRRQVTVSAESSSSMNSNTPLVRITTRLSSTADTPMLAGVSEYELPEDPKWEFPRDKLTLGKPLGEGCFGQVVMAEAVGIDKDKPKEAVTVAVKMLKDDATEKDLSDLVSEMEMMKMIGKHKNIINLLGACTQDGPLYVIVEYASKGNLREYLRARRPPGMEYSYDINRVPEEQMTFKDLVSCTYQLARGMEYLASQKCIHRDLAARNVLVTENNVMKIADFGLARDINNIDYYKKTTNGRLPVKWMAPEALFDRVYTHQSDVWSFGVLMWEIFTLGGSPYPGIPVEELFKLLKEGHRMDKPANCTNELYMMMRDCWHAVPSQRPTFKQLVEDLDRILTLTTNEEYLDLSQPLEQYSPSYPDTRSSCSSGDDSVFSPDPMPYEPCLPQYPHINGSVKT

For `Cn1cc(-n2cnc3c(NCc4nc5cc(Cl)c(Cl)cc5[nH]4)nc(N4CCOCC4)nc32)cn1`, the % of inhibition [1] was -6.55% and the % of control [2] was -2.35%.
In the case of `O=C(NOC[C@H](O)CO)c1ccc(F)c(F)c1Nc1ccc(I)cc1F`, the % of control [3] is reported as 100% and the % of control [4] is reported as 100%.
Work on `C=CC(=O)Nc1cccc(C(=O)Nc2ccc(Nc3cc(-c4[nH]c(SC)nc4C)ccn3)cc2)c1` yielded a % of control ([5]; at 1 µM) of 100%, a % of control ([5]; at 5 µM) of 87% and a % of control ([6]; at 1 µM) of 50%. The % of control ([6]; at 5 µM) was 11%.
Work on `COCC(=O)NC/C=C/c1ccc2ncnc(Nc3ccc(Oc4ccc(C)nc4)c(C)c3)c2c1` [CP-724714] yielded a % of control [7] of 100%.
For `CC(=O)Nc1cccc(-n2c(=O)n(C3CC3)c(=O)c3c(Nc4ccc(I)cc4F)n(C)c(=O)c(C)c32)c1`, the % of control [8] was 111%.
`CN(C)CCOc1ccc(-c2nc(-c3ccncc3)c(-c3ccc4c(c3)CC/C4=N\O)[nH]2)cc1` showed a % of control [9] of 91%.
`C=CC(=O)Nc1ccc(C(=O)Nc2[nH]nc3c2CN(C(=O)N[C@H](CN(C)C)c2ccccc2)C3(C)C)cc1` was tested, and the % of engagement [10] was 6.7%, the % of engagement ([11]; Selectivity number of off-targets 0.0, Selectivity number of targets 233.0, Source Knowledge https://www.sciencedirect.com/science/article/pii/S2451945619300674?via%3Dihub) was -7.1% and the % of engagement [11] was -1.1%.
`COc1cc(N(C)c2ccnc3ccc(C(F)(F)F)cc23)cc(OC)c1OC` was tested, and the % binding [12] was 100%.
